Assay results as given in PubChem BioAssay AID1919007 (Molecular Pharmacology Branch, DTP, NCI, 2023).

System: A498 complex spheroids with HUVEC/MSC, growth
Experiment: Anticancer human tumor A498 cell line growth inhibition [AhR];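 further: seven day exposure starting three days after spheroid seeding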;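 on viability, T/C: luminescence signal used as a surrogate for viable cells; luminescence viability scaled so 100% equals DMSO vehicle wells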
Settings: for IC50: curve of first compound; for viability, T/C: stronger effect = lower value
Outline: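 Spheroids combined tumor cells with HUVEC endothelial cells and human MSCs as stroma. AhR antagonists were paired with standard or investigational drugs, each dosed in half-log steps down from near clinical Cmax, or from 10 microM where Cmax was unknown.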

[1] = second compound 0.1 µM, first compound 0.0316 µM
[2] = second compound 0.1 µM, first compound 0.1 µM
[3] = second compound 0.1 µM, first compound 0.316 µM
[4] = second compound 0.1 µM, first compound 1 µM
[5] = second compound 0.1 µM, first compound 3.16 µM
[6] = second compound 0.1 µM, first compound 10 µM
[7] = second compound 0.316 µM, first compound 0.0316 µM
[8] = second compound 0.316 µM, first compound 0.1 µM
[9] = second compound 0.316 µM, first compound 0.316 µM
[10] = second compound 0.316 µM, first compound 1 µM
[11] = second compound 0.316 µM, first compound 3.16 µM
[12] = second compound 0.316 µM, first compound 10 µM
[13] = second compound 1 µM, first compound 0.0316 µM
[14] = second compound 1 µM, first compound 0.1 µM
[15] = second compound 1 µM, first compound 0.316 µM
[16] = second compound 1 µM, first compound 1 µM
[17] = second compound 1 µM, first compound 3.16 µM
[18] = second compound 1 µM, first compound 10 µM
[19] = second compound 3.16 µM, first compound 0.0316 µM
[20] = second compound 3.16 µM, first compound 0.1 µM
[21] = second compound 3.16 µM, first compound 0.316 µM
[22] = second compound 3.16 µM, first compound 1 µM
[23] = second compound 3.16 µM, first compound 3.16 µM
[24] = second compound 3.16 µM, first compound 10 µM
[25] = second compound 10 µM, first compound 0.0316 µM
[26] = second compound 10 µM, first compound 0.1 µM
[27] = second compound 10 µM, first compound 0.316 µM
[28] = second compound 10 µM, first compound 1 µM
[29] = second compound 10 µM, first compound 3.16 µM
[30] = second compound 10 µM, first compound 10 µM

Structure (SMILES)	IC50 (second compound 0.1 µM) [nM]	IC50 (second compound 0.316 µM) [nM]	IC50 (second compound 1 µM) [nM]	IC50 (second compound 3.16 µM) [nM]	IC50 (second compound 10 µM) [nM]	viability, T/C [1] [%]	viability, T/C [2] [%]	viability, T/C [3] [%]	viability, T/C [4] [%]	viability, T/C [7] [%]	viability, T/C [8] [%]	viability, T/C [9] [%]	viability, T/C [10] [%]	viability, T/C [13] [%]	viability, T/C [14] [%]	viability, T/C [15] [%]	viability, T/C [16] [%]	viability, T/C [19] [%]	viability, T/C [20] [%]	viability, T/C [21] [%]	other results
COc1cc(C2c3cc4c(cc3C(OC3OC5COC(C)OC5C(O)C3O)C3COC(=O)C23)OCO4)cc(OC)c1O (stereo not given) + Cc1ccccc1N=Nc1ccc(NC(=O)c2ccnn2C)c(C)c1	> 10000	> 10000	> 10000	7600	8760	73.9	68	63.5	64.6	85	76.9	77.4	66.7	75.3	71.1	67.5	63.4	72.9	68.7	72.6	viability, T/C [5]: 61.3%; viability, T/C [6]: 49.2%; viability, T/C [11]: 59.5%; viability, T/C [12]: 53.2%; viability, T/C [17]: 52.9%; viability, T/C [18]: 52.7%; viability, T/C [22]: 62.8%; viability, T/C [23]: 55.4%; viability, T/C [24]: 48.6%; viability, T/C [25]: 74.8%; viability, T/C [26]: 73.1%; viability, T/C [27]: 77.2%; viability, T/C [28]: 66.7%; viability, T/C [29]: 61.5%; viability, T/C [30]: 48.5%
COc1cccc2c1C(=O)c1c(O)c3c(c(O)c1C2=O)CC(O)(C(=O)CO)CC3OC1CC(N)C(O)C(C)O1 (stereo not given) + Cc1ccccc1N=Nc1ccc(NC(=O)c2ccnn2C)c(C)c1	290	397	369	397	400	61.7	52.4	49.6	23.8	65.6	61.6	55.7	25.5	58.6	60.4	52.9	25.7	59.9	62.6	52.9	viability, T/C [5]: 1.17%; viability, T/C [6]: 0.89%; viability, T/C [11]: 1.09%; viability, T/C [12]: 1.35%; viability, T/C [17]: 1.54%; viability, T/C [18]: 0.92%; viability, T/C [22]: 30.6%; viability, T/C [23]: 2.05%; viability, T/C [24]: 0.61%; viability, T/C [25]: 61.7%; viability, T/C [26]: 57.5%; viability, T/C [27]: 55.4%; viability, T/C [28]: 27%; viability, T/C [29]: 1.19%; viability, T/C [30]: 1.56%
Nc1ncn(C2CC(O)C(CO)O2)c(=O)n1 (stereo not given) + Cc1ccccc1N=Nc1ccc(NC(=O)c2ccnn2C)c(C)c1	> 1000	> 1000	> 1000	> 1000	> 1000	88.8	93.6	86.2	77.1	97.4	84	78.5	76.1	84.4	74.9	74.6	70.6	85.8	73.9	80	viability, T/C (second compound 0.1 µM, first compound 0.00316 µM): 88.8%; viability, T/C (second compound 0.1 µM, first compound 0.01 µM): 91.7%; viability, T/C (second compound 0.316 µM, first compound 0.00316 µM): 97%; viability, T/C (second compound 0.316 µM, first compound 0.01 µM): 97.5%; viability, T/C (second compound 1 µM, first compound 0.00316 µM): 81.2%; viability, T/C (second compound 1 µM, first compound 0.01 µM): 87.3%; viability, T/C (second compound 3.16 µM, first compound 0.00316 µM): 84.9%; viability, T/C (second compound 3.16 µM, first compound 0.01 µM): 87.2%; viability, T/C [22]: 64%; viability, T/C (second compound 10 µM, first compound 0.00316 µM): 90.7%; viability, T/C (second compound 10 µM, first compound 0.01 µM): 86.7%; viability, T/C [25]: 76.9%; viability, T/C [26]: 85.3%; viability, T/C [27]: 74.8%; viability, T/C [28]: 68%
